In patent US7709636B2, “Pyrazole sulfonylurea compound and herbicide” (Nissan Chemical Industries, Ltd., priority 2004, dated 2010):

Experiments:
Echinochloa crus-galli [1] = experiment: Herbicidal effect test in submerged condition by treatment before weed-generation (1); assay type: in vivo; conditions: 0.64 g/a, water surface treated on day of sowing, 3 weeks after treatment
In short: (§1)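 Steps: flood alluvial soil to 4 cm; sow weed seeds; transplant 2.5-leaf rice seedlings; same day treat water surface with water-diluted wettable powder at set formulation amount; keep in greenhouse at 25 to 30° C; score injury on 0–5 scale at 3 weeks.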

Monochoria vaginalis [2] = experiment: as above; assay type: in vivo; conditions: 0.64 g/a, water surface treated on day of sowing, 3 weeks after treatment
In short: as §1

Scirpus juncoides [3] = experiment: as above; assay type: in vivo; conditions: 0.64 g/a, water surface treated on day of sowing, 3 weeks after treatment
In short: as §1

Echinochloa crus-galli [4] = experiment: Herbicidal effect test in submerged condition by treatment during weed-growth stage (1); assay type: in vivo; conditions: 0.64 g/a, treated at 1st to 2nd leaf stage, 3 weeks after treatment
In short: (§2)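 Paddy-soil pots flooded to 4 cm water depth were sown and grown in a greenhouse at 25 to 30° C until weeds reached 1st to 2nd leaf stage. A wettable powder diluted in water to a predetermined formulation amount was applied to the water surface. Herbicidal effect was scored 3 weeks after treatment against set criteria.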

Monochoria vaginalis [5] = experiment: as above; assay type: in vivo; conditions: 0.64 g/a, treated at 1st to 2nd leaf stage, 3 weeks after treatment
In short: as §2

Scirpus juncoides [6] = experiment: as above; assay type: in vivo; conditions: 0.64 g/a, treated at 1st to 2nd leaf stage, 3 weeks after treatment
In short: as §2

Abutilon avicennae [7] = experiment: Herbicidal effect test by soil treatment; assay type: in vivo; conditions: 1.6 g/a, 3 weeks after treatment
In short: (§3)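 Sow seed in sterilized diluvial soil; cover with about 1.5 cm soil; spray surface uniformly with wettable powder diluted in water to the predetermined amount; rate herbicidal effect after 3 weeks.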

Amaranthus retroflexus [8] = experiment: Herbicidal effect test by soil treatment; assay type: in vivo; conditions: 1.6 g/a, 3 weeks after treatment
In short: as §3

Ambrosia elatior [9] = experiment: Herbicidal effect test by soil treatment; assay type: in vivo; conditions: 1.6 g/a, 3 weeks after treatment
In short: as §3

Avena fatua [10] = experiment: Herbicidal effect test by soil treatment; assay type: in vivo; conditions: 1.6 g/a, 3 weeks after treatment
In short: as §3

Beta vulgaris (beet) [11] = experiment: Herbicidal effect test by soil treatment; assay type: in vivo; conditions: 1.6 g/a, 3 weeks after treatment
In short: as §3

Black-grass [12] = experiment: Herbicidal effect test by soil treatment; assay type: in vivo; conditions: 1.6 g/a, 3 weeks after treatment
In short: as §3

Chenopodium album [13] = experiment: Herbicidal effect test by soil treatment; assay type: in vivo; conditions: 1.6 g/a, 3 weeks after treatment
In short: as §3

Digitaria adscendes [14] = experiment: Herbicidal effect test by soil treatment; assay type: in vivo; conditions: 1.6 g/a, 3 weeks after treatment
In short: as §3

Echinochloa crus-galli [15] = experiment: Herbicidal effect test by soil treatment; assay type: in vivo; conditions: 1.6 g/a, 3 weeks after treatment
In short: as §3

Polygonum blumei [16] = experiment: Herbicidal effect test by soil treatment; assay type: in vivo; conditions: 1.6 g/a, 3 weeks after treatment
In short: as §3

Setaria viridis [17] = experiment: Herbicidal effect test by soil treatment; assay type: in vivo; conditions: 1.6 g/a, 3 weeks after treatment
In short: as §3

Stellaria media [18] = experiment: Herbicidal effect test by soil treatment; assay type: in vivo; conditions: 1.6 g/a, 3 weeks after treatment
In short: as §3

[19] = test system: Triticum aestivum (wheat); experiment: Herbicidal effect test by soil treatment; assay type: in vivo; conditions: 1.6 g/a, 3 weeks after treatment
In short: as §3

corn (Zea mays) [20] = experiment: Herbicidal effect test by soil treatment; assay type: in vivo; conditions: 1.6 g/a, 3 weeks after treatment
In short: as §3

soybean (Glycine max) [21] = experiment: Herbicidal effect test by soil treatment; assay type: in vivo; conditions: 1.6 g/a, 3 weeks after treatment
In short: as §3

direct sown rice [22] = experiment: Herbicidal effect test by soil treatment; assay type: in vivo, Oryza sativa; conditions: 1.6 g/a, 3 weeks after treatment
In short: as §3

Abutilon avicennae [23] = experiment: Herbicidal effect test by foliage treatment; assay type: in vivo; conditions: 1.6 g/a; foliage treatment after growth of 14 days; 3 weeks after treatment
In short: (§4)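 Plants grow from seed under about 1.5 cm of sterilized diluvial soil for 14 days at 25 to 30° C in a greenhouse. A small sprayer applies diluted wettable powder evenly to the foliage, and each species is scored three weeks later.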

Amaranthus retroflexus [24] = experiment: Herbicidal effect test by foliage treatment; assay type: in vivo; conditions: 1.6 g/a; foliage treatment after growth of 14 days; 3 weeks after treatment
In short: as §4

Ambrosia elatior [25] = experiment: Herbicidal effect test by foliage treatment; assay type: in vivo; conditions: 1.6 g/a; foliage treatment after growth of 14 days; 3 weeks after treatment
In short: as §4

Avena fatua [26] = experiment: Herbicidal effect test by foliage treatment; assay type: in vivo; conditions: 1.6 g/a; foliage treatment after growth of 14 days; 3 weeks after treatment
In short: as §4

Beta vulgaris (beet) [27] = experiment: Herbicidal effect test by foliage treatment; assay type: in vivo; conditions: 1.6 g/a; foliage treatment after growth of 14 days; 3 weeks after treatment
In short: as §4

Black-grass [28] = experiment: Herbicidal effect test by foliage treatment; assay type: in vivo; conditions: 1.6 g/a; foliage treatment after growth of 14 days; 3 weeks after treatment
In short: as §4

Chenopodium album [29] = experiment: Herbicidal effect test by foliage treatment; assay type: in vivo; conditions: 1.6 g/a; foliage treatment after growth of 14 days; 3 weeks after treatment
In short: as §4

Digitaria adscendes [30] = experiment: Herbicidal effect test by foliage treatment; assay type: in vivo; conditions: 1.6 g/a; foliage treatment after growth of 14 days; 3 weeks after treatment
In short: as §4

Echinochloa crus-galli [31] = experiment: Herbicidal effect test by foliage treatment; assay type: in vivo; conditions: 1.6 g/a; foliage treatment after growth of 14 days; 3 weeks after treatment
In short: as §4

Polygonum blumei [32] = experiment: Herbicidal effect test by foliage treatment; assay type: in vivo; conditions: 1.6 g/a; foliage treatment after growth of 14 days; 3 weeks after treatment
In short: as §4

Setaria viridis [33] = experiment: Herbicidal effect test by foliage treatment; assay type: in vivo; conditions: 1.6 g/a; foliage treatment after growth of 14 days; 3 weeks after treatment
In short: as §4

Stellaria media [34] = experiment: Herbicidal effect test by foliage treatment; assay type: in vivo; conditions: 1.6 g/a; foliage treatment after growth of 14 days; 3 weeks after treatment
In short: as §4

[35] = test system: Triticum aestivum (wheat); experiment: Herbicidal effect test by foliage treatment; assay type: in vivo; conditions: 1.6 g/a; foliage treatment after growth of 14 days; 3 weeks after treatment
In short: as §4

corn (Zea mays) [36] = experiment: Herbicidal effect test by foliage treatment; assay type: in vivo; conditions: 1.6 g/a; foliage treatment after growth of 14 days; 3 weeks after treatment
In short: as §4

soybean (Glycine max) [37] = experiment: Herbicidal effect test by foliage treatment; assay type: in vivo; conditions: 1.6 g/a; foliage treatment after growth of 14 days; 3 weeks after treatment
In short: as §4

direct sown rice [38] = experiment: Herbicidal effect test by foliage treatment; assay type: in vivo, Oryza sativa; conditions: 1.6 g/a; foliage treatment after growth of 14 days; 3 weeks after treatment
In short: as §4

`COc1cc(OC)nc(NC(=O)NS(=O)(=O)c2c(C3=NOCC(C)(CI)O3)c(C)nn2C)n1` (centres unmarked) [Compound 8, N-((4,6-dimethoxypyrimidin-2-yl)aminocarbonyl)-4-(5-iodomethyl-5-methyl-5H,6H-1,4,2-dioxadin-3-yl)-1,3-dimethylpyrazole-5-sulfonamide] was tested, and the “herbicidal effect, A: Echinochloa crus-galli” value (Echinochloa crus-galli [1]) was 3 (Herbicidal rate 40% or more and less than 70%), the “herbicidal effect, C: Monochoria vaginalis” value (Monochoria vaginalis [2]) was 5 (Herbicidal rate 90% or more (almost complete death)) and the “herbicidal effect, B: Scirpus juncoides” value (Scirpus juncoides [3]) was 4 (Herbicidal rate 70% or more and less than 90%). For the same compound, the “herbicidal effect, A: Echinochloa crus-galli” value (Echinochloa crus-galli [4]) was 4 (Herbicidal rate 70% or more and less than 90%), the “herbicidal effect, C: Monochoria vaginalis” value (Monochoria vaginalis [5]) was 4 (Herbicidal rate 70% or more and less than 90%) and the “herbicidal effect, B: Scirpus juncoides” value (Scirpus juncoides [6]) was 4 (Herbicidal rate 70% or more and less than 90%). The “herbicidal effect, H: Abutilon avicennae” value (Abutilon avicennae [7]) was 0 (Herbicidal rate 5% or less (little effect)), the “herbicidal effect, J: Amaranthus retroflexus” value (Amaranthus retroflexus [8]) was 5 (Herbicidal rate 90% or more (almost complete death)) and the “herbicidal effect, I: Ambrosia elatior” value (Ambrosia elatior [9]) was 5 (Herbicidal rate 90% or more (almost complete death)). The “herbicidal effect, F: Avena fatua” value (Avena fatua [10]) was 0 (Herbicidal rate 5% or less (little effect)), the “herbicidal effect, f: Beta vulgaris (beet)” value (Beta vulgaris (beet) [11]) was 2 (Herbicidal rate 20% or more and less than 40%) and the “herbicidal effect, G: Black-grass” value (Black-grass [12]) was 3 (Herbicidal rate 40% or more and less than 70%). The “herbicidal effect, K: Chenopodium album” value (Chenopodium album [13]) was 2 (Herbicidal rate 20% or more and less than 40%), the “herbicidal effect, D: Digitaria adscendes” value (Digitaria adscendes [14]) was 3 (Herbicidal rate 40% or more and less than 70%) and the “herbicidal effect, A: Echinochloa crus-galli” value (Echinochloa crus-galli [15]) was 1 (Herbicidal rate 5% or more and less than 20%). For the same compound, the “herbicidal effect, L: Polygonum blumei” value (Polygonum blumei [16]) was 5 (Herbicidal rate 90% or more (almost complete death)), the “herbicidal effect, E: Setaria viridis” value (Setaria viridis [17]) was 0 (Herbicidal rate 5% or less (little effect)) and the “herbicidal effect, M: Stellaria media” value (Stellaria media [18]) was 4 (Herbicidal rate 70% or more and less than 90%). The “herbicidal effect, e: Triticum aestivum (wheat)” value [19] was 1 (Herbicidal rate 5% or more and less than 20%), the “herbicidal effect, b: corn (Zea mays)” value (corn (Zea mays) [20]) was 0 (Herbicidal rate 5% or less (little effect)) and the “herbicidal effect, c: soybean (Glycine max)” value (soybean (Glycine max) [21]) was 0 (Herbicidal rate 5% or less (little effect)). The “herbicidal effect, d: direct sown rice” value (direct sown rice [22]) was 2 (Herbicidal rate 20% or more and less than 40%), the “herbicidal effect, H: Abutilon avicennae” value (Abutilon avicennae [23]) was 5 (Herbicidal rate 90% or more (almost complete death)) and the “herbicidal effect, J: Amaranthus retroflexus” value (Amaranthus retroflexus [24]) was 4 (Herbicidal rate 70% or more and less than 90%). For the same compound, the “herbicidal effect, I: Ambrosia elatior” value (Ambrosia elatior [25]) was 4 (Herbicidal rate 70% or more and less than 90%), the “herbicidal effect, F: Avena fatua” value (Avena fatua [26]) was 1 (Herbicidal rate 5% or more and less than 20%) and the “herbicidal effect, f: Beta vulgaris (beet)” value (Beta vulgaris (beet) [27]) was 4 (Herbicidal rate 70% or more and less than 90%). The “herbicidal effect, G: Black-grass” value (Black-grass [28]) was 0 (Herbicidal rate 5% or less (little effect)), the “herbicidal effect, K: Chenopodium album” value (Chenopodium album [29]) was 4 (Herbicidal rate 70% or more and less than 90%) and the “herbicidal effect, D: Digitaria adscendes” value (Digitaria adscendes [30]) was 3 (Herbicidal rate 40% or more and less than 70%). For the same compound, the “herbicidal effect, A: Echinochloa crus-galli” value (Echinochloa crus-galli [31]) was 4 (Herbicidal rate 70% or more and less than 90%), the “herbicidal effect, L: Polygonum blumei” value (Polygonum blumei [32]) was 4 (Herbicidal rate 70% or more and less than 90%) and the “herbicidal effect, E: Setaria viridis” value (Setaria viridis [33]) was 4 (Herbicidal rate 70% or more and less than 90%). The “herbicidal effect, M: Stellaria media” value (Stellaria media [34]) was 4 (Herbicidal rate 70% or more and less than 90%), the “herbicidal effect, e: Triticum aestivum (wheat)” value [35] was 1 (Herbicidal rate 5% or more and less than 20%) and the “herbicidal effect, b: corn (Zea mays)” value (corn (Zea mays) [36]) was 4 (Herbicidal rate 70% or more and less than 90%). For the same compound, the “herbicidal effect, c: soybean (Glycine max)” value (soybean (Glycine max) [37]) was 4 (Herbicidal rate 70% or more and less than 90%) and the “herbicidal effect, d: direct sown rice” value (direct sown rice [38]) was 1 (Herbicidal rate 5% or more and less than 20%).
